Experimental data: patent publication US20060205808A1, “Anti-inflammatory and cure for ageing, Alzheimer's disease on phloroglucinol derivatives” (Kaohsiung Medical University, priority 2005, published 2006)

Legend:
rat neutrophils [1] = experiment: release of β-glucuronidase from rat neutrophils stimulated with fMLP/CB; type: cell-based; conditions: fMLP (1 μM)/CB (5 μg mL^−1); for IC50: means ± s.e.m. (n = 3-5)
rat neutrophils [2] = experiment: release of lysozyme from rat neutrophils stimulated with fMLP/CB; type: cell-based; conditions: fMLP (1 μM)/CB (5 μg mL^−1); for IC50: means ± s.e.m. (n = 3-5)
rat neutrophils [3] = experiment: fMLP/CB-induced superoxide anion generation in rat neutrophils; type: cell-based
Protocol: (§1) FMLP (0.3 μM)/CB (5 μg mL^−1) or phorbol myristate acetate (PMA) (3 nM) stimulated superoxide anion generation in rat neutrophils. […] Trifluoperazine was used in this experiment as a positive control.

rat neutrophils [4] = experiment: PMA-induced superoxide anion generation in rat neutrophils; type: cell-based; conditions: PMA (3 nM)
Protocol: as §1

[5] = system: RAW 264.7 macrophage-like cells; experiment: NO production (nitrite accumulation, Griess reaction) in RAW 264.7 cells in response to LPS; type: cell-based; conditions: LPS (1 μg mL^−1), 24 h; for IC50: read-out: IC50, accumulation of NO2^− in culture media, RAW 264.7 cells
Protocol: (§2) Treatment of RAW 264.7 macrophage-like cells with LPS (1 μg mL^−1) or N9 microglial cells with LPS (10 ng mL^−1)/IFN-γ (10 U mL^−1) for 24 h induced NO production as assessed by measuring the accumulation of nitrite, a stable metabolite of NO, in the media, based on the Griess reaction. […] 1400 W was used in this experiment as a positive control.

N9 microglial cells = experiment: NO production (nitrite accumulation, Griess reaction) in N9 cells in response to LPS/IFN-γ; type: cell-based; conditions: LPS (10 ng mL^−1)/IFN-γ (10 U mL^−1); for IC50: read-out: IC50, accumulation of NO2^− in culture media, N9 cells
Protocol: as §2

[6] = system: mast cells and neutrophils; conditions: background statement; cited from earlier work

Compound | IC50 (rat neutrophils [1]) [µM] | IC50 (rat neutrophils [2]) [µM] | IC50 (rat neutrophils [3]; fMLP (0.3 μM)/CB (5 μg mL^−1)) [µM] | IC50 (rat neutrophils [4]) [µM] | IC50 [5] [µM] | IC50 (N9 microglial cells; 24 h) [nM] | % of inhibition at the highest concentration, superoxide anion, PMA (rat neutrophils [4]) [%] | % of inhibition at the highest concentration, NO2^− accumulation, RAW 264.7 cells [5] [%] | inhibition of chemical mediators release from mast cells and neutrophils (in words) [6] | further results
CC(C)=CCC1CC2(CC=C(C)C)C(=O)C(C(=O)C(C)C)(C(=O)C(C=CC(C)(C)O)=C2O)C1(C)C (centres unmarked) [Compound 1, Garcinielliptone F] | 26.9 ± 2.6 | 20 ± 1.3 | 17 ± 0.9 | > 30 | > 10 | > 3000 | 46.8 ± 4.5 | 22.9 ± 2.9 | – | inhibitory effect on release of β-glucuronidase (in words) (rat neutrophils [1]): potent inhibitory effects; inhibitory effect on release of lysozyme (in words) (rat neutrophils [2]): potent inhibitory effects; inhibitory effect on fMLP/CB-induced superoxide anion generation (in words) (rat neutrophils [3]; fMLP/CB (5 μg mL^−1)): potent inhibitory effect; % of inhibition at the highest concentration, NO2^− accumulation, N9 cells (N9 microglial cells; 24 h, highest concentration): 31.2 ± 0.7%
CC(=N)NCc1cccc(CN)c1 [Compound 1400W, N-(3-Aminomethyl) benzylacetamidine, reference compound] | – | – | – | – | 3 ± 0.2 | 2200 ± 100 | – | – | – | –
CC(C)=CCC1=C2O[C@H](C(C)(C)O)C[C@@]23C[C@H](CC=C(C)C)C(C)(C)[C@@](C(=O)C(C)C)(C1=O)C3=O [Garsubellin A] | – | – | – | – | – | – | – | – | strongly inhibited | –
CN1CCN(CCCN2c3ccccc3Sc3ccc(C(F)(F)F)cc32)CC1 [Trifluoperazine, reference compound] | – | – | – | – | – | – | – | – | – | IC50 (rat neutrophils [1]; Neutrophil): 10.6 ± 0.9 µM; IC50 (rat neutrophils [2]; Neutrophil): 13.2 ± 0.7 µM; IC50 (rat neutrophils [3]; Neutrophil, fMLP (0.3 μM)/CB (5 μg mL^−1)): 6.6 ± 0.2 µM; IC50 (rat neutrophils [4]; Neutrophil): 2.7 ± 0.6 µM
CC(C)=CC[C@H]1C[C@]2(CC=C(C)C)C(=O)[C@]3(CC=C(C)C)O[C@@]1(C(=O)C(C)C)[C@@]2(O)C(C)(C)C3=O [garcinielliptin oxide] | – | – | – | – | – | – | – | – | strongly inhibited | –
Garcinielliptone I [Compound 4] | > 30 | > 30 | > 30 | > 30 | > 30 | 7400 ± 200 | −76.3 ± 7.3 | 17.4 ± 1.5 | – | % of inhibition at the highest concentration, β-Glucuronidase release (rat neutrophils [1]; highest concentration): 15.6 ± 2.7%; % of inhibition at the highest concentration, Lysozyme release (rat neutrophils [2]; highest concentration): −1.6 ± 7.3%; % of inhibition at the highest concentration, superoxide anion, fMLP/CB (rat neutrophils [3]; fMLP (0.3 μM)/CB (5 μg mL^−1), highest concentration): 2.8 ± 5.7%; effect on production of NO induced by LPS/IFN-γ in N9 cells (in words) (N9 microglial cells): potent inhibitory effect
